From paper PMC11249646, “Small-Molecule Disruptors of the Interaction between Calcium- and Integrin-Binding Protein 1 and Integrin αIIbβ3 as Novel Antiplatelet Agents” (ACS Pharmacology & Translational Science, 2024)
Like-named read-outs stand apart in the source and are kept apart here. Where a SMILES comes first, the peptide text is derived from it. The star is where a group is joined. FITC = O=C1OC2(c3ccc(O)cc3Oc3cc(O)ccc32)c2ccc(NC(=S)*)cc21

Key:
Assay type in all cases: binding
[1] = molecular target: T1, CIB1 and αIIb interaction (CIB1-GST : F-αIIb peptide) (Homo sapiens, UniProt Q99828); experiment: FP assay, 1536-well qHTS format (primary and confirmatory screen); details: for Efficacy (%) / CONFIRMATORY SCREEN Efficacy (%): negative = inhibition; for CONFIRMATORY SCREEN Confirm?: YES/NO call
T1 construct: made in house; host or cells: BL-21 plus RIL cells (E. coli)
T1 sequence (Q99828 1-191): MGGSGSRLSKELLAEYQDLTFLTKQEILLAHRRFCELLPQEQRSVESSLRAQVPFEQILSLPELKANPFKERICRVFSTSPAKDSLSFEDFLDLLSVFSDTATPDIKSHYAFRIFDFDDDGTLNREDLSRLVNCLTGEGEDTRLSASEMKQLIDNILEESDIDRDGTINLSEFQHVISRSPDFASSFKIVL

[2] = molecular target: T2, CIB1 and αIIb interaction (GST-CIB1 : F-αIIb peptide) (Homo sapiens, UniProt Q99828); experiment: FP assay, 384-well format (screen); set-up: 384-well SCREEN Efficacy (%): concentration or dose not given beside the values; details: F-αIIb peptide; for 384-well SCREEN Confirm?: YES/NO; for IC50: read-out: 384-well SCREEN IC50
T2 construct: made in house; host or cells: BL-21 plus RIL cells (E. coli)
T2 sequence (Q99828 1-191): T1 sequence (Q99828 1-191)

[3] = molecular target: T3, GST-CIB1 : F-scrambled peptide (Homo sapiens, UniProt Q99828); experiment: FP scrambled-peptide counter screen, 384-well format; details: for 384-well COUNTERSCREEN Efficacy (%) / 384-well COUNTERSCREEN Confirm? / IC50: F-scrambled peptide; for 384-well COUNTERSCREEN Confirm?: *: Curve in opposite direction; for IC50: read-out: 384-well COUNTERSCREEN IC50
T3 construct: made in house; host or cells: BL-21 plus RIL cells (E. coli)
T3 sequence (Q99828 1-191): T1 sequence (Q99828 1-191)

[4] = molecular target: T3, GST-CIB1 : F-scrambled peptide; experiment: FP scrambled-peptide counter screen, 1536-well format; details: for COUNTERSCREEN Confirm?: YES/NO call
[5] = qHTS primary screen hits, Table S2
[6] = qHTS primary screen hits, Table S2, negative sign = inhibitory curve
[7] = scrambled-peptide counterscreen
[8] = confirmatory screen, qHTS curve class, negative sign = inhibitory curve
[9] = confirmatory screen, read-out: CONFIRMATORY SCREEN IC50
[10] = qHTS primary screen hits, Table S2, read-out: IC50
[11] = scrambled-peptide counterscreen, qHTS curve class

Row | SMILES | Efficacy (%) [1, 5] [%] | Curve Class [1, 6] | 384-well SCREEN Efficacy (%) [2] [%] | 384-well SCREEN Confirm? [2] | 384-well COUNTERSCREEN Efficacy (%) [3] [%] | COUNTERSCREEN Efficacy (%) [4, 7] [%] | COUNTERSCREEN Confirm? [4, 7] | CONFIRMATORY SCREEN Confirm? ([1]; confirmatory screen) | CONFIRMATORY SCREEN Curve Class [1, 8] | CONFIRMATORY SCREEN Efficacy (%) ([1]; confirmatory screen) | IC50 [2] [µM] | 384-well COUNTERSCREEN Confirm? [3] | IC50 [3] [µM] | IC50 [1, 10] [µM] | also measured
1 | Cc1nc(N=Nc2cc(S(=O)(=O)O)c3cc([N+](=O)[O-])cc(S(=O)(=O)O)c3c2)c(COP(=O)(O)O)c(C=O)c1O (stereo in doubt) [NCGC00162294-03] | -64 | -1.2 | 70 | YES | 70 |  |  |  |  |  |  |  |  |  | 
2 | CSCC[C@H](NC(=O)[C@@H](NC(=O)[C@H](CCCCN)NC(=O)[C@@H](NC(=O)[C@H](Cc1ccccc1)NC(=O)[C@H](CC(C)C)NC(=O)[C@H](CCCCN)NC(=O)[C@H](CCCNC(=N)N)NC(C)=O)C(C)C)C(C)C)C(=O)N[C@@H](Cc1ccccc1)C(=O)N[C@@H](Cc1c[nH]c2ccccc12)C(=O)N[C@@H](CCCNC(=N)N)C(=O)N[C@@H](CC(C)C)C(=O)N[C@@H](CC(N)=O)C(=O)NCC(=O)N[C@@H](C)C(=O)N[C@@H](CCCCNC(=S)Nc1ccc2c(c1)C(=O)OC21c2ccc(O)cc2Oc2cc(O)ccc21)C(=O)O [F-scrambled, reference compound] (Ac-RKLFVKVMFWRLNGAK(FITC)-OH; C-terminus assumed) |  |  |  |  |  |  |  |  |  |  |  |  |  |  | affinity weaker compared to the native peptide ([3]; F-scrambled vs F-αIIb, 1.6 vs 0.2 μM): ~8 fold
3 | CCc1oc2ccccc2c1C(=O)c1cc(Br)c(O)c(Br)c1 [NCGC00013895-08] |  |  | 39 | YES | 60 | 52 | YES | YES | -1.2 | -66 | 25.1 | YES | 12.6 |  | IC50 ([4]; scrambled-peptide counterscreen, read-out: COUNTERSCREEN IC50): 20 µM; IC50 [1, 9]: 22.4 µM
4 | O=C(O)C1=CC(=C(c2ccc(O)c(C(=O)O)c2)c2ccc(O)c(C(=O)O)c2)C=CC1=O [NCGC00015040-05] | -33 | -1.2 | 45 | YES | 15 |  |  |  |  |  | 4.6 | YES | > 120 | 3.2 | 
5 | OCCN(CCO)c1nc(N2CCCCC2)c2nc(N(CCO)CCO)nc(N3CCCCC3)c2n1 [NCGC00015385-15] | -172 | -1.1 | 175 | YES | 200 |  |  |  |  |  | 22.2 |  | 22.2 | 12.7 | 
6 | Cl.O=C1c2c(O)ccc(O)c2C(=O)c2c(NCCNCCO)ccc(NCCNCCO)c21 [NCGC00015693-04] |  |  | 80 | YES | 75 |  |  |  |  |  | 4.1 |  | 5.8 |  | Efficacy (%) (counterscreen) ([4]; counterscreen): -125%; Curve Class (counterscreen) ([4]; counterscreen, qHTS curve class, negative sign = inhibitory curve): -1.1; IC50 ([4]; counterscreen, read-out: IC50 [μM] (counterscreen)): 20 µM; Efficacy (%) (confirmatory screen) ([1]; confirmatory screen): -112%; Confirm? (confirmatory screen) ([1]; confirmatory screen, YES/NO): YES; Curve Class (confirmatory screen) [1, 8]: -1.1; IC50 ([1]; confirmatory screen, read-out: IC50 [μM] (confirmatory screen)): 20 µM; Efficacy (%) ([1]; qHTS FP screen hits, Table S2): -85%; IC50 ([1]; qHTS FP screen hits, Table S2, read-out: IC50): 25.2 µM
7 | CC[C@@H](CO)NC(=O)[C@@H]1C=C2c3cccc4[nH]cc(c34)C[C@H]2N(C)C1.O=C(O)/C=C\C(=O)O [NCGC00017258-05] |  |  | 80 | YES | 80 | -16 | YES | YES | -2.4 | -34 | 60 |  |  |  | COUNTERSCREEN Curve Class [4, 11]: 4; Efficacy (%) ([1]; qHTS FP screen hits, Table S2): -131%; Curve Class ([1]; qHTS FP screen hits, Table S2, one class per curve where COUNT > 1, negative sign = inhibitory curve): -2.1
8 | NS(=O)(=O)c1cccc2c1c([N+](=O)[O-])cc1nc(O)c([O-])nc12.[Na+] [NCGC00024961-03] | -46 | -1.2 | 70 | YES | 70 |  |  |  |  |  | 9.1 |  | 7.4 | 5 | 
9 | Cc1ccc(C)n1-c1cccc(C(=O)O)c1.O=C(O)C(F)(F)F [NCGC00060597-02] |  |  | 30 | YES | 24 | -11 | YES | YES | -1.2 | -42 | 17.7 | YES | > 120 |  | COUNTERSCREEN Curve Class [4, 11]: 4; IC50 [1, 9]: 8.9 µM
